From patent publication US7981939B2, “Application of 2-bromide-isovanillin for the manufacture of a medicament for anti-cancer or/and radiation/chemotherapy sensitization” (Institute of Radiation Medicine, Academy of Military …, priority 2005, dated 2011)

How the values were obtained:
[1] = test system: human cervical cancer cell line HeLa; experiment: Clonogenic assay, 6 days of continuous action, HeLa; format: cell-based
Experimental: (§1) Human cervical cancer cell line HeLa, human liver cancer cell line HepG2/7221/7402, human ovarian cancer cell line HOC8/A2780, human glioma cell line BT325, lung cancer cell line A549, brain metastatic lung cancer cell line BT72 and normal human hepatic cell line LO2 were all grown in DMEM liquid medium supplemented with 10% newborn calf serum. Human leukemia cell line Jurkat was grown in 1640 medium supplemented with 10% newborn calf serum. The above cell lines were cultured in a CO2 incubator at 5% CO2 at 37° C.
(§2) By way of example, human cervical cancer cell line HeLa, lung cancer cell line A549, and ovarian cancer cell lines A2780 and HOC8 were used to determine the killing of cancer cells by 2-bromo-isovanillin for 6 days. Specifically, four groups were formed according to the type of the cancer cells. The cancer cells were diluted as appropriate, and were respectively plated into Petri dishes with a diameter of […], the amount of the cells adjusted depending on the concentration of 2-bromo-isovanillin to be added. Once adherence was achieved, each cell type received dosages of 0, 5, 10, 15, 20, 25, 30 and 35 μmol/L in triplicates. After 6 days of continuous action, the medium was replaced by a drug-free DMEM liquid medium. […] Then the cell clones were counted. The experimental data were expressed as the mean of 2-4 experiments and were plotted as a growth curve of cancer cells.

[2] = test system: c-myc protein; experiment: c-myc protein expression by Western immunoblotting, HeLa; format: cell-based, human; details: 40 μmol/L, 0-24 hrs, decrease more remarkable with time
Experimental: The expression level of c-myc protein in human cervical cancer cell line HeLa treated with 2-bromo-isovanillin was determined by Western immunoblotting. In the Western blotting, the mouse anti-human c-myc protein monoclonal antibody SC-40 (purchased from Santa Cruz) was used as the primary antibody, and the goat anti-mouse antibody IgG-HRP (purchased from Zhongshan Reagent Co.) was used as the secondary antibody. Total proteins from human cervical cancer cells HeLa treated with 40 μmol/L 2-bromo-isovanillin for 0, 4, 8, 12, 24 hrs were extracted according to conventional methods, quantified and subjected to SDS-PAGE electrophoresis, followed by transferring to a membrane and immunoblotting, using β-actin as control.

[3] = test system: human liver cancer cell line HepG2; experiment: G2/M arrest and apoptosis by flow cytometry, HepG2; format: cell-based; details: HepG2, 40 μmol/L
Experimental: By way of example, human liver cancer cell lines HepG2 and 7402, human ovarian cancer cell lines HOC8 and A2780, human glioma cell line BT325, lung cancer cell line A549, brain metastatic lung cancer cell line BT72 and prostate cancer cell line IB-4 were used to investigate the G2/M arresting of solid tumor cells of different tissue origins by 2-bromo-isovanillin as measured by the ratio of cells at G2/M phase. Specifically, the cancer cells were divided into two groups, and were treated with 0 or 40 μmol/L 2-bromo-isovanillin for 24 hours. Then the cells were harvested and analyzed for changes in cell cycle and cell apoptosis by flow cytometry.
2. In a separate experiment, the cell cycle profile and apoptosis rate of human liver cancer cell line HepG2 treated with 40 μmol/L 2-bromo-isovanillin for different periods of time (0-50 h) were studied, and the results are shown in FIGS. 7A and 7B (1, 2, 3, 4 respectively represent the apoptosis results for treatment with 40 μmol/L 2-bromo-isovanillin for 0, 8, 16, 24 hrs).

[4] = test system: lung cancer cell line A549; experiment: Clonogenic assay, 6 days of continuous action, A549; format: cell-based
Experimental: as §1, §2

[5] = test system: normal human hepatic cell line LO2; experiment: Cell cycle profile and apoptosis by flow cytometry, LO2; format: cell-based; details: LO2, 40 μmol/L, 24 hrs
Experimental: By way of example, human liver cancer cell line HepG2 and normal human hepatic cell line LO2 were used to study the inhibitory effect of 2-bromo-isovanillin on the growth of liver cancer cells and normal cells by clonogenic assay. Specifically, five groups were formed according to the drug concentration, and the liver cancer cells HepG2 and normal hepatic cells LO2 were respectively treated with 5, 10, 20, 40 and 80 μmol/L 2-bromo-isovanillin for 24 hrs. Then cell survival was measured by clonogenic assay (FIG. 8). In addition, the cell cycle profile and apoptotic effect were compared using flow cytometry.

[6] = test system: ovarian cancer cell line HOC8; experiment: Clonogenic assay, 6 days of continuous action, HOC8; format: cell-based, human
Experimental: as §1, §2

[7] = test system: spindle structure in HepG2 cells; experiment: Spindle structure by immunofluorescent labeling of tubulin, HepG2; format: cell-based, human; details: HepG2, 40 μmol/L, 24 hrs
Description: 3. […] The influence of 2-bromo-isovanillin on the spindle structure in HepG2 cells was further studied by means of in situ immunofluorescence hybridization by immunofluorescent labeling of tubulin. […] The cells with impaired spindle function could not undergo normal division, thereby leading to rapid cell death, i.e., mitotic catastrophe.

[8] = molecular target: T1, nuclear protein DNA-PKcs serine/threonine protein kinase (Homo sapiens, UniProt P78527); experiment: DNA-PKcs kinase activity in nuclear protein of treated HepG2 cells; format: cell-based; details: 24 hrs
T1 construct: adding nuclear proteins to the solid phase reaction system; endogenous in cells; host or cells: HepG2 human liver cancer cells (nuclear protein extract)
Experimental: The activity of nuclear protein DNA-PKcs serine/threonine protein kinase in human liver cancer cells HepG2 treated with 0, 10, 20, 40, 100 μmol/L 2-bromo-isovanillin for 24 hrs was determined by using […] DNA dependent protein kinase assay kit (Promega), according to the manufacturer's instructions, and the treatment with 100 μmol/L vanillin for the same period of time served as control. Basically, the assay was carried out by immobilizing the phosphorylation substrate specific to DNA-PKcs, i.e., a peptide derived from p53 protein onto a cellulose membrane, adding nuclear proteins to the solid phase reaction system, isotopically labeling the substrate by phosphorylation using γ-^32P ATP, removing non-specific signals after the isotope labeling, and visualizing the kinase activity upon X-ray film developing.

COc1ccc(C=O)c(Br)c1O [2-bromo-isovanillin, 2-bromo-3-hydroxy-4-methoxybenzaldehyde]
survival rate ([1]; 20 μmol/L): lower than 10%
proliferation ([1]; 30 μmol/L): completely inhibited
expression level of c-myc protein [2]: decreased
treatment time after which obvious G2/M arrest began to appear [3]: 4 h
treatment time of peak G2/M arrest [3]: 8 to 16 h
cell cycle effect ([3]; 24 hrs): arrested at G2/M phase
cell apoptosis ([3]; after 8 hrs of treatment): significantly increased
cells at G0/G1 phase ([3]; at the time of G2/M arrest): significantly decreased
survival rate ([4]; A549, 20 μmol/L): lower than 10%
proliferation ([4]; A549, 30 μmol/L): completely inhibited
G2/M arrest and apoptosis in normal hepatic cells [5]: did not result in G2/M arrest or significant cell apoptosis
survival rate ([6]; HOC8, 20 μmol/L): lower than 10%
proliferation ([6]; HOC8, 30 μmol/L): completely inhibited
M phase cells with multiple centrosomes or destroyed spindle structure [7]: more than 65%
ratio of cells at mitotic phase [7]: significantly increased
effect on DNA-PKcs kinase activity ([8]; HepG2, 20 μmol/L): significantly inhibited
inhibitory effect on DNA-PKcs kinase activity ([8]; HepG2, 40-100 μmol/L, compared with 20 μmol/L): more remarkable
